The structures appear in SMILES notation. Some results are limits rather than exact numbers.

22 molecules from ChEMBL document CHEMBL1144946, “4-Amino-2-(aryl)-butylbenzamides and Their conformationally constrained analogues. Potent antagonists of the human neurokinin-2 (NK(2)) receptor” (Bioorg Med Chem Lett, 2003) can be followed below.

The target in test [1] is T1, Substance-K receptor (Homo sapiens, UniProt P21452).
T1 sequence (P21452 whole entry): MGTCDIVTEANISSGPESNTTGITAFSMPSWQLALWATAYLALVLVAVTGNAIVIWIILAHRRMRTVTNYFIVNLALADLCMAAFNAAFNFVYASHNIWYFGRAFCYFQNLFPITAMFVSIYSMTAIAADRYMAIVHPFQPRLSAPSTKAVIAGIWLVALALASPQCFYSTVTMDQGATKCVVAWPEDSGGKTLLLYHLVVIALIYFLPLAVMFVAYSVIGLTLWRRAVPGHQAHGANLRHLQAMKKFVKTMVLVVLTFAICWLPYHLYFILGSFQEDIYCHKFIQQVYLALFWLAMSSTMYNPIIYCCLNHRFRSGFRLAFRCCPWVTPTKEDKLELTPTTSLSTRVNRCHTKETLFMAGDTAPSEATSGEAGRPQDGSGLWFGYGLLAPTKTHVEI
Put plainly: Binding affinity for human tachykinin receptor 2 expressed in CHO cells using [125I]- NKA radioligand. Type of test: cell-based.

Another test is filed under the species Oryctolagus cuniculus. Put plainly: Ability to antagonise the contractile effects of the selective NK2 receptor agonist [B-ala8]NKA in the rabbit pulmonary artery (RPA). Type of test: functional. The following applies: read-out: pA2 (converted).
Test [2] concerns the target T1, Substance-K receptor. Put plainly: Binding affinity towards human Tachykinin receptor 2 using [125I]- NKA radioligand expressed in CHO cells. Type of test: cell-based.
Test [3] addresses T2, Substance-K receptor (Rattus norvegicus) (UniProt P16610).
T2 sequence (whole entry): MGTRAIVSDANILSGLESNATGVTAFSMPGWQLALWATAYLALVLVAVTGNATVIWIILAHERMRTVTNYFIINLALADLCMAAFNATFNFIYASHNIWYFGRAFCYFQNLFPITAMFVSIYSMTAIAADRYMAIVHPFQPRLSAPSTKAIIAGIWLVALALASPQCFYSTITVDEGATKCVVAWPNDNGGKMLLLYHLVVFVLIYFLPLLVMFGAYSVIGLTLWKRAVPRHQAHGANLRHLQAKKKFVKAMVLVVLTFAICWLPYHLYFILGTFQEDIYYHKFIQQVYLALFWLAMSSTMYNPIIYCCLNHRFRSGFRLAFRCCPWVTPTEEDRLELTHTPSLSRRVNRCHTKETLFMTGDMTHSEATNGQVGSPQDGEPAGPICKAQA
Put plainly: Binding affinity towards […] using [125I]- NKA radioligand expressed in rat duodenum at 100 nM.

`CN(CC(CCN1CCC(c2nc3ccccc3[nH]2)CC1)c1ccc(Cl)c(Cl)c1)C(=O)c1ccccc1` (stereo not given) showed a pIC50 at Substance-K receptor [1] of 7.3. In the test listed under Oryctolagus cuniculus, the Kb is 50.1 nM.

`CN(CC(CCN1CCCC(n2c(O)nc3ccccc32)CC1)c1ccc(Cl)c(Cl)c1)C(=O)c1ccccc1` (stereo not given) had a pIC50 at Substance-K receptor [1] of 8.4. Besides, the Kb in the test filed under Oryctolagus cuniculus is 3.98 nM.

Turning to `CC(=O)NC1(c2ccccc2)CCN(CCC(CN(C)C(=O)c2ccccc2)c2ccc(Cl)c(Cl)c2)CC1` (stereo not given), the pIC50 at Substance-K receptor [2] stood at 8.9. Moreover, the Kb in the test listed under Oryctolagus cuniculus is 0.794 nM.

For the molecule `CN(CC(CCN1CCC(n2cnc3ccccc32)CC1)c1ccc(Cl)c(Cl)c1)C(=O)c1ccccc1` (stereo not given), on Substance-K receptor [1], the pIC50 stood at 8.1. Moreover, in the test listed under Oryctolagus cuniculus, the Kb is 2.51 nM.

Molecule `CN(CC(CCN1CCCCC1)c1ccc(Cl)c(Cl)c1)C(=O)c1ccccc1` (stereo not given) had a negative-log IC50 (pIC50) at Substance-K receptor [1] of 6.3.

As to `CN(CC(CCN1CCC(c2ccccc2)CC1)c1ccc(Cl)c(Cl)c1)C(=O)c1ccccc1` (stereo not given), the pIC50 at Substance-K receptor [1] was < 7.

The molecule `CN(CC(CCN1CCC(n2c(O)nc3ccccc32)C1)c1ccc(Cl)c(Cl)c1)C(=O)c1ccccc1` (stereo not given) gave a pIC50 at Substance-K receptor [1] of 7.4.

`CN(CC(CCN1CCC(n2cncn2)CC1)c1ccc(Cl)c(Cl)c1)C(=O)c1ccccc1` (stereo not given): the pIC50 on Substance-K receptor [1] was determined as 6.8. Moreover, the Kb in the test filed under Oryctolagus cuniculus was 79.4 nM.

On Substance-K receptor [1], `O=C(CC1CC1)N1CCC(CCN2CC(N3CCOCC3)C2)(c2ccc(Cl)c(Cl)c2)C1` (stereo not given) returned a pIC50 of 6.3.

As for `CCN(CC)C(=O)C1CCCN(CCC(CN(C)C(=O)c2ccccc2)c2ccc(Cl)c(Cl)c2)C1` (stereo not given), the inhibition in test [3] came out at 61%.

Molecule `CN(CC(CCN1CC(n2ccnc2)C1)c1ccc(Cl)c(Cl)c1)C(=O)c1ccccc1` (stereo not given) had a negative logarithm of the IC50 (pIC50) on Substance-K receptor [1] of 6.8. The Kb in the test listed under Oryctolagus cuniculus was 25.1 nM.

Take `O=C(c1ccccc1)N1CCC(CCN2CC(N3CCOCC3)C2)(c2ccc(Cl)c(Cl)c2)C1` (stereo not given): the pIC50 at Substance-K receptor [1] was 7.5.

As for `O=C(c1ccccc1)N1CC(CCN2CC(N3CCOCC3)C2)(c2ccc(Cl)c(Cl)c2)C1`, the pIC50 on Substance-K receptor [1] came out at 7.2. In addition, the Kb in the test filed under Oryctolagus cuniculus is 7.94 nM.

On Substance-K receptor [1], `CN(CC(CCN1CCC(n2c(O)nc3ccccc32)CC1)c1ccc(Cl)c(Cl)c1)C(=O)c1ccccc1` (stereo not given) returned a pIC50 of 8.9. The inhibition in test [3] is 81%. The Kb in the test listed under Oryctolagus cuniculus is 3.98 nM.

In turn, `CN(CC(CCN1CCCC(n2c(=O)[nH]c3ccccc32)C1)c1ccc(Cl)c(Cl)c1)C(=O)c1ccccc1` (stereo not given) gave a pIC50 on Substance-K receptor [1] of 7.1.

Take `CN(CC(CCN1CCC(O)CC1)c1ccc(Cl)c(Cl)c1)C(=O)c1ccccc1` (stereo not given): the pIC50 at Substance-K receptor [1] stood at 6.4.

At Substance-K receptor [1], `CN(CC(CCN1CCC(O)(c2ccccc2)CC1)c1ccc(Cl)c(Cl)c1)C(=O)c1ccccc1` (stereo not given) had a negative-log IC50 (pIC50) of 8.9. Besides, the Kb in the test filed under Oryctolagus cuniculus was 0.316 nM.

For `COc1ccccc1C(=O)N1CCCC(CCN2CC(N3CCOCC3)C2)(c2ccc(Cl)c(Cl)c2)C1` (stereo not given), the Kb in the test filed under Oryctolagus cuniculus is 20 nM.

In turn, `CN(CC(CCN1CC(N2CCOCC2)C1)c1ccc(Cl)c(Cl)c1)C(=O)c1ccccc1` (stereo not given) displayed a pIC50 on Substance-K receptor [1] of 7.7. Also, the Kb in the test listed under Oryctolagus cuniculus is 1.26 nM.

`CN(CC(CCN1CCC(n2ccnc2)CC1)c1ccc(Cl)c(Cl)c1)C(=O)c1ccccc1` (stereo not given) registered a pIC50 on Substance-K receptor [1] of 7.7. Besides, in the test listed under Oryctolagus cuniculus, the Kb was 5.01 nM.

`O=S(=O)(c1ccccc1)N1CCC(CCN2CC(N3CCOCC3)C2)(c2ccc(Cl)c(Cl)c2)C1` (stereo not given): the pIC50 on Substance-K receptor [1] is 6.7. Moreover, the Kb in the test filed under Oryctolagus cuniculus was 63.1 nM.

Regarding `CN(CC(CCN1CCC(O)(c2ncc[nH]2)CC1)c1ccc(Cl)c(Cl)c1)C(=O)c1ccccc1` (stereo not given), at Substance-K receptor [1], the pIC50 was found to be 6.6.

One may read the pIC50 as the negative decadic logarithm of the IC50, by convention in mol/L. Low readings indicate a large IC50, high ones a small IC50. For orientation: inhibition means the drop in the measured response relative to a control, in per cent.
